Measurements from US7141564B2, “Nitrogen-containing bicyclic heterocycles for use as antibacterials” (priority 2001, dated 2006).
Structures can show the parent of a compound that is named as a salt.

test system: not listed separately; test: MIC of test compounds against various organisms; assay type: cell-based; conditions: not given

Structure (SMILES)	MIC [µg/mL]
COc1ccc2nccc(NC(=O)C3=CCC(N(CC(=O)O)Cc4ccc5c(c4)NC(=O)CS5)CC3)c2n1 (racemic) [Example 156, (R/S)-4-[Carboxymethyl-(3-oxo-3,4-dihydro-2H-benzo[1,4]thiazin-6-ylmethyl)-amino]-cyclohex-1-enecarboxylic Acid (6-methoxy-[1,5]naphthyridin-4-yl)-amide Bis(trifluoroacetate) Salt]	≤ 16
COc1ccc2nccc(NC(=O)[C@H]3CC[C@H](NCc4ccc5c(c4)NC(=O)CS5)CC3)c2c1 [Example 28, Trans 4-[(3-Oxo-3,4-dihydro-2-H-benzo[1,4]thiazin-6-ylmethyl)-amino]-cyclohexanecarboxylic acid (6-methoxy-quinolin-4-yl)-amide]	≤ 4

same assay, conditions: versus all these organisms (panel of 10 strains); read-out: MIC

MIC [µg/mL]	Structure (SMILES)
≤ 64	COc1ccc2nccc(NC(=O)[C@H]3CC[C@H](NCc4ccc5scnc5c4)CC3)c2n1 [Example 25, Trans-4-[(Benzothiazol-5-ylmethyl)-amino]cyclohexanecarboxylic acid(6-methoxy-[1,5]naphthyridine-4-yl)amide oxalate salt]
≤ 4	COc1ccc2nccc(NC(=O)[C@]3(O)CC[C@@H](NCc4ccc5c(n4)NC(=O)CO5)CC3)c2n1 [Example 305, 1-Hydroxy-t-4-[(3-oxo-3,4-dihydro-2H-pyrido[3,2-b][1,4]oxazin-6-ylmethyl)-amino]-r-cyclohexanecarboxylic Acid (6-methoxy-[1,5]naphthyridin-4-yl)-amide Dihydrochloride]
≤ 4	COc1ccc2nccc(NC(=O)[C@H]3CC[C@H](NCc4cnc5c(c4)NC(=O)CS5)CC3)c2n1 [Example 13, Trans-4-[(2-Oxo-2,3-dihydro-1H-pyrido[2,3-b][1,4]thiazin-7-ylmethyl)-amino]-cyclohexanecarboxylic Acid (6-methoxy-[1,5]naphthyridin-4-yl)-amide oxalate salt]
≤ 16	COc1ccc2nccc(NC(=O)[C@H]3CC[C@H](NCc4ccc5c(c4)OCCO5)CC3)c2c1 [Example 11, Trans-4-[(2,3-Dihydro-benzo[1,4]dioxin-6-ylmethyl)-amino]-cyclohexanecarboxylic acid (6-methoxy-quinolin-4-yl)-amide fumarate salt]
≤ 16	COc1cc(F)c2nccc(NC(=O)[C@H]3CC[C@H](NCc4ccc5c(c4)OCCO5)CC3)c2c1 [Example 10, Trans-4-[(2,3-Dihydro-benzo[1,4]dioxin-6-ylmethyl)-amino]-cyclohexanecarboxylic acid (8-fluoro-6-methoxy-quinolin-4-yl)-amide Fumarate Salt]
≤ 4	COc1cc(F)c2nccc(NC(=O)[C@H]3CC[C@H](NCc4ccc5c(c4)NC(=O)CS5)CC3)c2c1 [Example 30, Trans-4-[(3-Oxo-3,4-dihydro-2-H-benzo[1,4]thiazin-6-ylmethyl)amino]-cyclohexanecarboxylic acid (8-fluoro-6-methoxy-quinolin-4-yl)-amide oxalate]
≤ 16	COc1ccc2nccc(NC(=O)[C@H]3CC[C@H](NCc4cnc5c(c4)NC(=O)CS5)CC3)c2c1 [Example 14, Trans-4-[(2-Oxo-2,3-dihydro-1H-pyrido[2,3-b][1,4]thiazin-7-ylmethyl)-amino]-cyclohexanecarboxylic acid (6-methoxy-quinolin-4-yl)-amide oxalate salt]
≤ 16	COc1ccc2nccc(NC(=O)[C@H]3CC[C@H](NCc4ccc5c(c4)NCCO5)CC3)c2n1 [Example 15, Trans-4-[(3,4-Dihydro-2H-benzo[1,4]oxazin-6-ylmethyl)-amino]-cyclohexanecarboxylic acid (6-methoxy-[1,5]naphthyridin-4-yl)-amide oxalate salt]
≤ 64	COc1ccc2nccc(NC(=O)[C@H]3CC[C@H](NCc4cc(N)c5c(c4)NC(=O)CO5)CC3)c2n1 [Example 36, Trans-4-[(8-Amino-3-oxo-3,4-dihydro-2H-benzo[1,4]oxazin-6-ylmethyl)-amino]-cyclohexanecarboxylic acid (6-methoxy)-[1,5]naphthyridin-4-yl)-amide Oxalate]
≤ 4	COc1ccc2nccc(NC(=O)[C@H]3CC[C@H](NCc4ccc5c(n4)NC(=O)CO5)CC3)c2n1 [Example 31, Trans-4-[(3-Oxo-3,4-dihydro-2H-pyrido[3,2-b][1,4]oxazin-6-ylmethyl)-amino]-cyclohexanecarboxylic acid (6-methoxy-[1,5]naphthyridin-4-yl)-amide oxalate]
≤ 4	COc1ccc2nccc(NC(=O)[C@H]3CC[C@H](NCc4cnc5c(c4)OCCO5)CC3)c2n1 [Example 20, Trans-4-[(2,3-Dihydro-[1,4]dioxino[2,3-b]pyridin-7-ylmethyl)-amino]-cyclohexanecarboxylic acid (6-methoxy-[1,5]naphthyridin-4-yl)-amide oxalate salt]
≤ 16	COc1ccc2nccc(NC(=O)C3=CCC(NCc4cnc5c(c4)NC(=O)CO5)CC3)c2n1 (racemic) [Example 155, (R/S)-4-[(2-Oxo-2,3-dihydro-1H-pyrido[2,3-b][1,4]oxazin-7-ylmethyl)-amino]-cyclohex-1-enecarboxylic Acid (6-methoxy-[1,5]naphthyridin-4-yl)-amide oxalate]
≤ 16	COc1ccc2nccc(C(O)C[C@H]3CC[C@H](NCc4ccc5c(c4)OCCO5)CC3)c2c1 (stereo partly drawn) [Example 22, Trans-2-{4-[(2,3-Dihydro-benzo[1,4]dioxin-6-ylmethyl)-amino]-cyclohexyl}-1-(6-methoxy-quinolin-4-yl)-ethanol oxalate salt]
≤ 16	NCCCOc1ccc2nccc(NC(=O)[C@H]3CC[C@H](NCc4ccc5c(c4)OCCO5)CC3)c2n1 [Example 29, Trans-4-[(2,3-Dihydro-benzo[1,4]dioxin-6-ylmethyl)-amino]-cyclohexanecarboxylic acid [6-(3-amino-propoxy)-[1,5]naphthyridin-4-yl]-amide dioxalate]
≤ 4	COc1ccc2nccc(NC(=O)[C@]3(O)CC[C@@H](NCc4cc5c(cn4)SCC(=O)N5)CC3)c2n1 [Example 302, 1-Hydroxy-t-4-[(2-oxo-2,3-dihydro-1H-pyrido[3,4-b][1,4]thiazin-7-ylmethyl)-amino]-r-cyclohexanecarboxylic Acid (6-methoxy-[1,5]naphthyridin-4-yl)-amide Dihydrochloride]
≤ 4	COc1ccc2nccc(NC(=O)[C@]3(O)CC[C@@H](NCc4ccc5c(n4)NC(=O)CS5)CC3)c2n1 [Example 301, 1-Hydroxy-t-4-[(3-oxo-3,4-dihydro-2H-pyrido[3,2-b][1,4]thiazin-6-ylmethyl)-amino]-r-cyclohexanecarboxylic Acid (6-methoxy-[1,5]naphthyridin-4-yl)-amide Dihydrochloride]

test system: S. aureus WCUH29, S. pneumoniae 1629, H. influenzae ATCC 51907, M. catarrhalis Ravisio; test: MIC of further test compounds against an alternative selection of organisms; assay type: cell-based; conditions: versus all these organisms (alternative panel of 4 strains)
Experimental: The MIC […] of further test compounds against an alternative selection of organisms was determined: S. aureus WCUH29, S. pneumoniae 1629, H. influenzae ATCC 51907, M. catarrhalis Ravisio.

MIC [µg/mL]	Structure (SMILES)
≤ 16	COCCOc1ccc2nccc(NC(=O)[C@]3(O)CC[C@@H](NCc4ccc5c(n4)NC(=O)CS5)CC3)c2n1 [Example 313, 1-Hydroxy-t-4-[(3-oxo-3,4-dihydro-2H-pyrido[3,2-b][1,4]thiazin-6-ylmethyl)-amino]-r-cyclohexanecarboxylic acid [6-(2-methoxy-ethoxy)-[1,5]naphthyridin-4-yl]-amide dihydrochloride]
≤ 16	CCc1cc2c(nc1CN[C@H]1CC[C@](O)(C(=O)Nc3ccnc4ccc(OC)nc34)CC1)NC(=O)CS2 [Example 311, 1-Hydroxy-t-4-[(7-ethyl-3-oxo-3,4-dihydro-2H-pyrido[3,2-b][1,4]thiazin-6-ylmethyl)-amino]-r-cyclohexanecarboxylic acid (6-methoxy-[1,5]naphthyridin-4-yl)-amide dihydrochloride]
